Measured values as given in US11427567B2, “Imidazolyl pyrimidinylamine compounds as CDK2 inhibitors” (Incyte Corporation, priority 2019, dated 2022).

What follows are compounds tested against CDK2/Cyclin E1 (Homo sapiens (Human), UniProt P24941) (assay: CDK2/Cyclin E1 HTRF enzyme activity assay (Example A)). Details: 1 mM ATP.
Type: biochemical
Description: Assays were conducted in white 384-well polystyrene plates in a final reaction volume of 8 μL. […] HTRF signals were read after 1 hour at room temperature on a PHERAstar FS plate reader (BMG Labtech). Data was analyzed with IDBS XLFit and GraphPad Prism 5.0 software using a three or four parameter dose response curve to determine IC50 for each compound.

IC50, ≤ 50 nM:
Cc1nc(-c2nc(NC3CCN(S(C)(=O)=O)CC3)ncc2C(F)(F)F)cn1-c1ccc(N2CC(C)(O)C2)cc1F [Example 456, 1-(3-Fluoro-4-(2-methyl-4-(2-((1-(methylsulfonyl)piperidin-4-yl)amino)-5-(trifluoromethyl)pyrimidin-4-yl)-1H-imidazol-1-yl)phenyl)-3-methylazetidin-3-ol]
CCN1CCN(Cc2ccc(-n3cnc(-c4nc(NC5CCN(S(C)(=O)=O)CC5)ncc4C(F)(F)F)c3)c(C#N)c2)CC1 [Example 339, 5-((4-Ethylpiperazin-1-yl)methyl)-2-(4-(2-((1-(methylsulfonyl)piperidin-4-yl)amino)-5-(trifluoromethyl)pyrimidin-4-yl)-1H-imidazol-1-yl)benzonitrile]
CS(=O)(=O)N1CCC(Nc2ncc(C(F)(F)F)c(-c3cn(-c4cccc(Cl)c4Cl)cn3)n2)CC1 [Example 60, 4-(1-(2,3-Dichlorophenyl)-1H-imidazol-4-yl)-N-(1-(methylsulfonyl)piperidin-4-yl)-5-(trifluoromethyl)pyrimidin-2-amine]
CC(C)(O)Cn1cnc(-c2nc(NC3CCN(S(=O)(=O)C4CC4)CC3)ncc2C(F)(F)F)c1 [Example 30, 1-(4-(2-((1-(Cyclopropylsulfonyl)piperidin-4-yl)amino)-5-(trifluoromethyl)pyrimidin-4-yl)-1H-imidazol-1-yl)-2-methylpropan-2-ol]
Cc1nc(-c2nc(N[C@H]3CCN(S(C)(=O)=O)C[C@H]3F)ncc2C(F)(F)F)cn1-c1ccc(CN2CCC(C)(O)CC2)cc1F [Example 446, 1-(3-Fluoro-4-(4-(2-(((3R,4S)-3-fluoro-1-(methylsulfonyl)piperidin-4-yl)amino)-5-(trifluoromethyl)pyrimidin-4-yl)-2-methyl-1H-imidazol-1-yl)benzyl)-4-methylpiperidin-4-ol]
CS(=O)(=O)N1CCC(Nc2ncc(C(F)(F)F)c(-c3cn(-c4ccc(CN5CC[C@H](O)C5)cc4C(F)(F)F)cn3)n2)CC1 [Example 260, (S)-1-(4-(4-(2-((1-(Methylsulfonyl)piperidin-4-yl)amino)-5-(trifluoromethyl)pyrimidin-4-yl)-1H-imidazol-1-yl)-(trifluoromethyl)benzyl) pyrrolidin-3-ol]
CC1(NCc2cccc(-n3cnc(-c4nc(NC5CCN(S(C)(=O)=O)CC5)ncc4C(F)(F)F)c3)c2Cl)CCOCC1 [Example 79, 4-(1-(2-Chloro-3-(((4-methyltetrahydro-2H-pyran-4-yl)amino)methyl)phenyl)-1H-imidazol-4-yl)-N-(1-(methylsulfonyl)piperidin-4-yl)-5-(trifluoromethyl)pyrimidin-2-amine]
CNC1CCN(c2ccc(-n3cc(-c4nc(NC5CCN(S(C)(=O)=O)CC5)ncc4C(F)(F)F)nc3C)c(F)c2)CC1 [Example 107, 4-(1-(2-Fluoro-4-(4-(methylamino)-piperidin-1-yl)-phenyl)-2-methyl-1H-imidazol-4-yl)-N-(1-(methyl-sulfonyl)piperidin-4-yl)-5-(trifluoro-methyl)pyrimidin-2-amine]
CS(=O)(=O)N1CCC(Nc2ncc(C#N)c(-c3cn(CC(F)F)cn3)n2)CC1 [Example 26, 4-(1-(2,2-Difluoroethyl)-1H-imidazol-4-yl)-2-((1-(methylsulfonyl)piperidin-4-yl)amino)pyrimidine-5-carbonitrile]
C[C@@H]1CN(S(C)(=O)=O)CC[C@@H]1Nc1ncc(C(F)(F)F)c(-c2cn(-c3ccc(C#N)cc3Cl)cn2)n1 [Example 172, 3-Chloro-4-(4-(2-(((3R,4S)-3-methyl-1-(methylsulfonyl)-piperidin-4-yl)-amino)-5-(trifluoro-methyl)pyrimidin-4-yl)-1H-imidazol-1-yl)benzonitrile]
CS(=O)(=O)N1CCC(Nc2ncc(C(F)(F)F)c(-c3cn(-c4ccc(CN5CCOC5=O)cc4Cl)cn3)n2)CC1 [Example 441, 3-(3-Chloro-4-(4-(2-((1-(methylsulfonyl)piperidin-4-yl)amino)-5-(trifluoromethyl)pyrimidin-4-yl)-1H-imidazol-1-yl)benzyl)oxazolidin-2-one]
Cc1nc(-c2nc(NC3CCN(S(C)(=O)=O)CC3)ncc2C(F)(F)F)cn1-c1ccc(CN2CC(C)C2)cc1F [Example 283, 4-(1-(2-Fluoro-4-((3-methylazetidin-1-yl)methyl)phenyl)-2-methyl-1H-imidazol-4-yl)-N-(1-(methylsulfonyl)piperidin-4-yl)-5-(trifluoromethyl)pyrimidin-2-amine]
CN(C)C(=O)c1ccc(-n2cnc(-c3nc(NC4CCN(S(C)(=O)=O)CC4)ncc3C(F)(F)F)c2)c(Cl)c1 [Example 135, 3-Chloro-N,N-dimethyl-4-(4-(2-((1-(methylsulfonyl)piperidin-4-yl)amino)-5-(trifluoromethyl)pyrimidin-4-yl)-1H-imidazol-1-yl)benzamide]
CS(=O)(=O)N1CCC(Nc2ncc(C(F)(F)F)c(-c3cn(-c4ccc(CN5CCCC5=O)cc4Cl)cn3)n2)CC1 [Example 454, 1-(3-Chloro-4-(4-(2-((1-(methylsulfonyl)piperidin-4-yl)amino)-5-(trifluoromethyl)pyrimidin-4-yl)-1H-imidazol-1-yl)benzyl)pyrrolidin-2-one]
CC(C#N)Oc1ccc(-n2cnc(-c3nc(NC4CCN(S(C)(=O)=O)CC4)ncc3C(F)(F)F)c2)c(C(F)(F)F)n1 (stereo not shown) [Example 74, 2-((5-(4-(2-((1-(Methylsulfonyl)piperidin-4-yl)amino)-5-(trifluoromethyl)pyrimidin-4-yl)-1H-imidazol-1-yl)-6-(trifluoromethyl)pyridin-2-yl)oxy)propanenitrile]
CNCc1ccc(-n2cc(-c3nc(N[C@H]4CCN(S(C)(=O)=O)C[C@H]4F)ncc3C(F)(F)F)nc2C)c(F)c1 [Example 287, N-((3R,4S)-3-Fluoro-1-(methylsulfonyl)piperidin-4-yl)-4-(1-(2-fluoro-4-((methylamino)methyl)phenyl)-2-methyl-1H-imidazol-4-yl)-5-(trifluoromethyl)pyrimidin-2-amine]
CS(=O)(=O)N1CCC(Nc2ncc(Cl)c(-c3cn(-c4ccc(C#N)cc4Cl)cn3)n2)CC1 [Example 171, 3-Chloro-4-(4-(5-chloro-2-((1-(methylsulfonyl)-piperidin-4-yl)-amino)pyrimidin-4-yl)-1H-imidazol-1-yl)benzonitrile]
CS(=O)(=O)N1CCC(Nc2ncc(C(F)(F)F)c(-c3cn(-c4cccc(CN5CC[C@@H](O)C5)c4Cl)cn3)n2)CC1 [Example 364, (R)-1-(2-Chloro-3-(4-(2-((1-(methyslulfonyl)piperidin-4-yl)amino)-5-(trifluoromethyl)pyrimi-din-4-yl)-1H-imidazol-1-yl)benzyl)pyrrolidin-3-ol]
C[C@@H]1CN(S(=O)(=O)C2CC2)CC[C@@H]1Nc1ncc(C(F)(F)F)c(-c2cn(-c3ccc(CN(C)C)cc3Cl)cn2)n1 [Example 222, 4-(1-(2-Chloro-4-((dimethylamino)-methyl)phenyl)-1H-imidazol-4-yl)-N-((3R,4S)-1-(cyclo-propylsulfonyl)-3-methylpiperidin-4-yl)-5-(trifluoro-methyl)pyrimidin-2-amine]
C[C@@]1(O)CCN(Cc2ccc(-n3cnc(-c4nc(N[C@@H]5CCN(S(C)(=O)=O)C[C@H]5F)ncc4C(F)(F)F)c3)c(Cl)c2)C1 [Example 397, (R)-1-(3-Chloro-4-(4-(2-(((3R,4R)-3-fluoro-1-(methylsulfonyl)piperidin-4-yl)amino)-5-(trifluoromethyl)pyrimidin-4-yl)-1H-imidazol-1-yl)benzyl)-3-methylpyrrolidin-3-ol]
Cc1nc(-c2nc(NC3CCN(S(C)(=O)=O)CC3)ncc2C(F)(F)F)cn1-c1ccc(CCN2CCC2)cc1F [Example 416, 4-(1-(4-(2-(Azetidin-1-yl)ethyl)-2-fluorophenyl)-2-methyl-1H-imidazol-4-yl)-N-(1-(methylsulfonyl)piperidin-4-yl)-5-(trifluoromethyl)pyrimidin-2-amine]
Cc1cc(C#N)ncc1-n1cnc(-c2nc(NC3CCN(S(C)(=O)=O)CC3)ncc2C(F)(F)F)c1 [Example 168, 4-Methyl-5-(4-(2-((1-(methylsulfonyl)piperidin-4-yl)amino)-5-(trifluoromethyl)pyrimidin-4-yl)-1H-imidazol-1-yl)picolinonitrile]
CS(=O)(=O)N1CC[C@H](Nc2ncc(C(F)(F)F)c(-c3cn(-c4ccc(CN5CCC5)cc4Cl)cn3)n2)[C@H](F)C1 [Example 184, 4-(1-(4-(Azetidin-1-ylmethyl)-2-chlorophenyl)-1H-imidazol-4-yl)-N-((3R,4S)-3-fluoro-1-(methylsulfonyl)piperidin-4-yl)-5-(trifluoromethyl)pyrimidin-2-amine]
CCNCc1ccc(-n2cnc(-c3nc(NC4CCN(S(C)(=O)=O)CC4)ncc3C(F)(F)F)c2)c(C(F)(F)F)c1 [Example 255, 4-(1-(4-((Ethylamino)methyl)-2-(trifluoromethyl)phenyl)-1H-imidazol-4-yl)-N-(1-(methylsulfonyl)piperidin-4-yl)-5-(trifluoromethyl)pyrimidin-2-amine]
CS(=O)(=O)N1CCC(Nc2ncc(C(F)(F)F)c(-c3cn(-c4cccnc4C(F)F)cn3)n2)CC1 [Example 37, 4-(1-(2-(Difluoromethyl)pyridin-3-yl)-1H-imidazol-4-yl)-N-(1-(methylsulfonyl)piperidin-4-yl)-5-(trifluoromethyl)pyrimidin-2-amine]
